One experiment addresses human FAK (Homo sapiens (Human), UniProt Q05397). Particulars: read-out: FAK IC50.
The target of a further experiment is human JAK2 (Homo sapiens (Human), UniProt O60674). The conditions noted are these: read-out: JAK2 IC50.

pIC50: −log10 of the molar value.

Usually pIC50 stands for the IC50 on a negative log10 scale, so that one unit is a factor of ten.

Sequence of human JAK2 (O60674 815-1132): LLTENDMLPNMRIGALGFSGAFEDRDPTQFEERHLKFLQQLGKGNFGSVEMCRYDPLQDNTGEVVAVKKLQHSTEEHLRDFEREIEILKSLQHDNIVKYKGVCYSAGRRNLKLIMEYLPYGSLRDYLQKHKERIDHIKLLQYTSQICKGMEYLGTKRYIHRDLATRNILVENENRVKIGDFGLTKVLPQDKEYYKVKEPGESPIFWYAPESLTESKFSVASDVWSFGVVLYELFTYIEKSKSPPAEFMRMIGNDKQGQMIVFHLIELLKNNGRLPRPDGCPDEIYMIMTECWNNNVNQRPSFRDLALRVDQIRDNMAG
Sequence of human FAK (Q05397 whole entry): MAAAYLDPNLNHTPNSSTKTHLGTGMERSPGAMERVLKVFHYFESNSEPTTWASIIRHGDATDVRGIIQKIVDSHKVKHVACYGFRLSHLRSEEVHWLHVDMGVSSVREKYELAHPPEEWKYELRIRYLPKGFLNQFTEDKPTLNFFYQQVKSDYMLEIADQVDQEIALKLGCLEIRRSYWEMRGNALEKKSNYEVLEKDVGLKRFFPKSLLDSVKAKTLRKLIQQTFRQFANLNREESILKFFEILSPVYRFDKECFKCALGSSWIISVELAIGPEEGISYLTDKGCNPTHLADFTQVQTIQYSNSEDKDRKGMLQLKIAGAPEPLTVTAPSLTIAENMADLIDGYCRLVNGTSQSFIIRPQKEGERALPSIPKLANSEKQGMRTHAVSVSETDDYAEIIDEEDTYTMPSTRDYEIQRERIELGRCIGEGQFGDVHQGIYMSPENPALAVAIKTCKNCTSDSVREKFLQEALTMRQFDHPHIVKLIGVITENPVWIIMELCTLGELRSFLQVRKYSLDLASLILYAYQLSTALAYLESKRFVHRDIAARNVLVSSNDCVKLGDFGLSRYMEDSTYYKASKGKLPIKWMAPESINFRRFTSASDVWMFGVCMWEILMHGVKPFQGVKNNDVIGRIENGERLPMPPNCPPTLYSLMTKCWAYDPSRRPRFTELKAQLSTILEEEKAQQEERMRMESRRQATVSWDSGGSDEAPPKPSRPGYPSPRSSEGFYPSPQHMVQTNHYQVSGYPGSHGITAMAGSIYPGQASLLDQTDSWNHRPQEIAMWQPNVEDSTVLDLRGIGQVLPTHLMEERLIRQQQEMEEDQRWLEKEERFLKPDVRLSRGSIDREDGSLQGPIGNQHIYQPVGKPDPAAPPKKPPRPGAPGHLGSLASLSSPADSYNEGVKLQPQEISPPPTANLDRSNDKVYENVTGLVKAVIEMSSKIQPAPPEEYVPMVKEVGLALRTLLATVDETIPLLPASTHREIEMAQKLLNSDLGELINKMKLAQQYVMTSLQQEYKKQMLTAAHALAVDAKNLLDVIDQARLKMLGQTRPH

`CN1CCN(c2cncc(Nc3nc4c(NCc5ccccc5N(C)S(C)(=O)=O)cccn4n3)n2)CC1` [Example 389, N-Methyl-N-(2-{[2-(4-methyl-3,4,5,6-tetrahydro-2H-[1,2′]bipyrazinyl-6′-ylamino)-[1,2,4]triazolo[1,5-a]pyridin-8-ylamino]-methyl}-phenyl)-methanesulfonamide]: the values for the pIC50 on human FAK and on human JAK2 were 5.98 and 5.19, respectively.
Taken in the same sequence, the figures for `COc1cccc(CNc2cccn3nc(Nc4ccc(N5CCN(C)CC5)cc4)nc23)c1` [Example 390, N(8)-(3-Methoxy-benzyl)-N(2)-[4-(4-methyl-piperazin-1-yl)-phenyl]-[1,2,4]triazolo[1,5-a]pyridine-2,8-diamine] were 5.00 and 5.87.
For `COc1ccc(CNc2cccn3nc(Nc4ccc(N5CCN(C)CC5)cc4)nc23)cc1` [Example 391, N(8)-(4-Methoxy-benzyl)-N(2)-[4-(4-methyl-piperazin-1-yl)-phenyl]-[1,2,4]triazolo[1,5-a]pyridine-2,8-diamine] the same measures were 5.00 and 5.52.
For `COc1cccc(CNc2cccn3nc(Nc4cccc(N5CCN(C)CC5)c4)nc23)c1` [Example 392, N(8)-(3-Methoxy-benzyl)-N(2)-[3-(4-methyl-piperazin-1-yl)-phenyl]-[1,2,4]triazolo[1,5-a]pyridine-2,8-diamine] the same measures were 5.00 and 5.52.
As for `COc1ccc(CNc2cccn3nc(Nc4cccc(N5CCN(C)CC5)c4)nc23)cc1` [Example 393, N(8)-(4-Methoxy-benzyl)-N(2)-[3-(4-methyl-piperazin-1-yl)-phenyl]-[1,2,4]triazolo[1,5-a]pyridine-2,8-diamine], the pIC50 on human FAK and on human JAK2 was 5.00 each time.
Take `COc1cccc(CNc2cccn3nc(Nc4ccc(OC)nc4)nc23)c1` [Example 394, N(8)-(3-Methoxy-benzyl)-N(2)-(6-methoxy-pyridin-3-yl)-[1,2,4]triazolo[1,5-a]pyridine-2,8-diamine]: the pIC50 on human FAK and on human JAK2 was 5.00 each time.
`CN1CCN(c2cccc(Nc3nc4c(NCc5ccccc5F)cccn4n3)c2)CC1` [Example 395, N(8)-(2-Fluoro-benzyl)-N(2)-[3-(4-methyl-piperazin-1-yl)-phenyl]-[1,2,4]triazolo[1,5-a]pyridine-2,8-diamine]: the pIC50 at human FAK was 5.83; on human JAK2 it was 6.74.
For `CN1CCN(c2cccc(Nc3nc4c(NCc5ccc(F)cc5)cccn4n3)c2)CC1` [Example 396, N(8)-(4-Fluoro-benzyl)-N(2)-[3-(4-methyl-piperazin-1-yl)-phenyl]-[1,2,4]triazolo[1,5-a]pyridine-2,8-diamine] the same measures were 5.00 and 5.84.
Taken in the same sequence, the figures for `COc1cccc(CNc2cccn3nc(Nc4ccnc(C)c4)nc23)c1` [Example 397, N(8)-(3-Methoxy-benzyl)-N(2)-(2-methyl-pyridin-4-yl)-[1,2,4]triazolo[1,5-a]pyridine-2,8-diamine] were 5.00 and 6.23.
Taken in the same sequence, the figures for `COc1cccc(CNc2cccn3nc(Nc4cccnc4)nc23)c1` [Example 398, N(8)-(3-Methoxy-benzyl)-N(2)-pyridin-3-yl-[1,2,4]triazolo[1,5-a]pyridine-2,8-diamine] were 5.00 and 6.09.
On to `COc1ccccc1CNc1cccn2nc(Nc3cccnc3)nc12` [Example 400, N(8)-(2-Methoxy-benzyl)-N(2)-pyridin-3-yl-[1,2,4]triazolo[1,5-a]pyridine-2,8-diamine], for which the pIC50 was 5.51 on human FAK and 7.49 at human JAK2.
For `COc1ccc(Nc2nc3c(NCc4ccccc4OC)cccn3n2)cn1` [Example 402, N(8)-(2-Methoxy-benzyl)-N(2)-(6-methoxy-pyridin-3-yl)-[1,2,4]triazolo[1,5-a]pyridine-2,8-diamine] the same measures were 5.52 and 7.37.

The values above are taken from patent US8501936B2 (priority 2009, dated 2013).
